Earlier results, collected in patent publication US20190175610A1 (priority 2017, published 2019).

Details: athletes, during exercise after oral supplementation

C[N+](C)(C)C[C@H](O)CC(=O)[O-] [L-carnitine, γ-trimethylamino-β-hydroxybutyrate]
benefit on fatty acid metabolism: no benefit
